# In EP0872239A2 (ELI LILLY AND COMPANY, priority 1997, dated 1998):
# Key:
# [1] = system: muscarinic cholinergic receptor; test: pharmacological studies, muscarinic cholinergic receptor activity; conditions: stated in words only
# cerebral focal stroke = test: experimental stroke / cerebral ischemia models (Assays 2 and 3); type: in vivo, rats; conditions: general statement on "such experiments"; no data given
# Method: The methodology for testing the compound's effect in ameliorating ischemic cell damage after transient middle cerebral artery occlusion (Zhang, et al., Stroke 26, 1438-43, 1995) is given as one example.
# Male rats weighing approximately 300 grams are anesthetized with 3.5% halothane and maintained with 1.0% halothane in 70% N2O and 30% O2 with the use of a face mask. Rectal remperature is maintained at 37°C throughout the surgical procedure. The right femoral artery and vein are cannulated for measuring blood gases before inducing ischemia, monitoring blood pressure during the surgery and administering compound.
# Approximately 18 mm of 4-0 surgical nylon suture with a rounded tip is advanced from the external carotid artery into the lumen of the internal carotid artery until it blocks the origin of the middle cerebral artery (MCA). […] Infarct volume is measured blindly with the use of a Global Lab Image analysis program (Data Translation). The infarct area and the ipsilateral and contralateral hemispheric area are calculated in square millimeters by tracing the right and left hemispheres and the ischemic lesion on the computer screen. The volumes in cubic millimeters are determined by multiplying the area by the section interval thickness. Infarct volume is analyzed as a percentage of the whole hemisphere. […]
# 5-HT1C receptor = biological target: T1, 5-HT1C receptor (Homo sapiens, UniProt P28335); test: pharmacological studies, 5-HT1C receptor activity; conditions: stated in words only
# T1 sequence (P28335 33-458): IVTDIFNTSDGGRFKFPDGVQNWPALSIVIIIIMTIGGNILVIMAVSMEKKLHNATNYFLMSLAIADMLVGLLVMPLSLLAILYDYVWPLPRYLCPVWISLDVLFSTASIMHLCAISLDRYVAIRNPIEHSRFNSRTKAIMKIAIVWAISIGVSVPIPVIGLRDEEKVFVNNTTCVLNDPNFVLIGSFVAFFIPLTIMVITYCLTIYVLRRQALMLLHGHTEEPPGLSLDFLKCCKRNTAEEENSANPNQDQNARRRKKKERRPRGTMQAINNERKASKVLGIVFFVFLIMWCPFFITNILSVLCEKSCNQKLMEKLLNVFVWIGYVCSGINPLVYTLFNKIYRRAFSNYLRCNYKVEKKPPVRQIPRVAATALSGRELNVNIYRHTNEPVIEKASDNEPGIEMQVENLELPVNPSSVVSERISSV
structure (smiles),measurement,setting,value
"Cc1cc2c(s1)Nc1ccccc1N=C2N1CCN(C)CC1 [olanzapine, 2-methyl-4-(4-methyl-1-piperazinyl)-10H-thieno [2,3-b] [1,5] benzodiazepine]",muscarinic cholinergic receptor activity,[1],has muscarinic cholinergic receptor activity
same,effect in the treatment or inhibition of cerebral focal stroke,cerebral focal stroke,significant effect
same,active at the 5-HT1C receptor,5-HT1C receptor,active
